The source of these data is patent US20250179040A1, “HISTAMINE H3 RECEPTOR ANTAGONISTS AND THEIR PHARMACEUTICAL USES” (HANGZHOU BIO-SINCERITY PHARMA-TECH CO., LTD., priority 2022, published 2025).

Structures are written as SMILES.

Data set [1] concerns the target histamine H3 receptor (Homo sapiens, UniProt Q9Y5N1). The experiment in a line: FLPPR assay, antagonistic activity on histamine H3 receptor. In kind it is cell-based. The following applies: for inhibition at 0.005 µM: read-out: % Inh-AVERAGE @ 5 nM; for inhibition at 0.05 µM: read-out: % Inh-AVERAGE @ 50 nM. The protocol:
The FLPPR assay (NIH Assay Guidance Manual: HTS Assay Validation-Section 4.3. Analysis (Potency), htpps://www.ncbi.nlm.nih.gov/books/NBK83783) was performed using SUVN-G3031 as a positive control, and 21 target compounds were tested for the antagonistic activity target to histamine H3 receptor.

In data set [2] the target is hERG channel (Homo sapiens, UniProt Q12809). Kind of data set: in vitro. Particulars: Average inhibition rate (%) on hERG channel. The text has this: In cardiomyocytes, inhibition of the delayed rectifier potassium current (IKr) channel protein encoded by the human Ether-a-go-go Related Gene (hERG) is the most important mechanism by which drugs lead to prolongation of the QT interval. hERG is characterized by a specific molecular structure, which allows it to be inhibited by different structures, leading to severe arrhythmias. Statistically, 25-40% of lead compounds show varying degrees of hERG-related toxicity. Therefore, early evaluation of the effects of compounds on hERG is crucial in the drug development process.
The inhibition rate of compounds on hERG channels was examined by manual membrane clamp technique on HEK293 cell line which is stably expressing hERG ion channels.
On the technique in general: Block of hERG is tested as a sign of cardiac risk.

The subject of data set [3] is CCI model rats. Kind of data set: Analgesic effect, chronic constriction injury (CCI) model, mechanical withdrawal threshold. The format is in vivo, SD rats. The source says: Exposing the sciatic nerve on male SD rats' (180-200 g) right hind leg, in the anterior segment where the sciatic nerve is about to bifurcate, use sterile chromic gut thread (No. 4, 0.15 mm in diameter) to ligate 4 loops loosely, with each loop 1-2 mm apart, and suture the muscle and skin to establish the chronic constriction injury (CCI) model. In the sham-operated group, only the sciatic nerve was exposed without ligation, and the muscle and skin were sutured. The mechanical withdrawal threshold was detected by electronic analgesia meter (IITC-2391) on the 7th day for 2 consecutive days.
The CCI model rats with stabilized mechanical withdrawal thresholds were randomly divided into five groups, named model group (model), pregabalin group (Pre, 30 mg/kg), BIOS-B-12 compound group (3 mg/kg), BIOS-B-12 compound group (1 mg/kg), and BIOS-B-12 compound group (0.3 mg/kg), and were administered at 1 mL/100 g by gavage, and the same column of saline was gavaged in Sham an model group. The basic value was determined before drug administration, and the mechanical withdrawal thresholds were detected at 0.5 h, 1 h, 2 h, 4 h, 6 h, and 24 h after a single drug administration, and the p value was calculated by ANOVA with T-test.
The CCI model rats with stabilized mechanical withdrawal thresholds were randomly divided into three groups, named model group (model), pregabalin group (Pre, 30 mg/kg), and BIOS-B-14 compound group (1 mg/kg), and were administered at 1 mL/100 g by gavage, and the same column of saline was gavaged in Sham and model group. The basic value was determined before drug administration, and the mechanical withdrawal thresholds were detected at 0.5 h, 1 h, 2 h, 4 h, and 6 h after a single drug administration, and the p value was calculated by ANOVA with T-test.

Data set [4] has as its system histamine-induced scratching. Kind of data set: Antipruritic ability, histamine-induced scratching in mice. The format is in vivo, C57BL/6J mice. The following applies: for number of histamine-induced scratched in mice: 10 mg/kg; for antipruritic effect compared with positive control dexamethasone: 10 mg/kg vs dexamethasone 3 mg/kg; for Inhibition Rate (%) of number of scratches: BIOS-B-12 10 mg/kg 4 h, BIOS-B-18 10 mg/kg 1 h, Dex 3 mg/kg 1 h before histamine 500 μg/50 μL s.c., observed 30 min, (Model-Compound)/Model×100%. The protocol:
The C57BL/6J male mice, with 6-8 weeks old, were randomly divided into model group (Model), BIOS-B-12 compound group (10 mg/kg), BIOS-B-18 compound group (10 mg/kg) and dexamethasone group (Dex, 3 mg/kg), with 7 animals in each group. The mice were injected subcutaneously with 500 μg/50 μL histamine at the back of the neck after the administration of dexamethasone for 1 h, BIOS-B-12 for 4 h, and BIOS-B-18 for 1 h, respectively, and immediately observed for 30 min. The number of scratched was recorded and the inhibition rate was calculated as (Model-Compound)/Model×100%.

Where [5] appears, read: BIOS-B-12 3, 1, 0.3 mg/kg vs pregabalin 30 mg/kg, FIG. 1 study.

hERG channel, sequence (Q12809 whole entry): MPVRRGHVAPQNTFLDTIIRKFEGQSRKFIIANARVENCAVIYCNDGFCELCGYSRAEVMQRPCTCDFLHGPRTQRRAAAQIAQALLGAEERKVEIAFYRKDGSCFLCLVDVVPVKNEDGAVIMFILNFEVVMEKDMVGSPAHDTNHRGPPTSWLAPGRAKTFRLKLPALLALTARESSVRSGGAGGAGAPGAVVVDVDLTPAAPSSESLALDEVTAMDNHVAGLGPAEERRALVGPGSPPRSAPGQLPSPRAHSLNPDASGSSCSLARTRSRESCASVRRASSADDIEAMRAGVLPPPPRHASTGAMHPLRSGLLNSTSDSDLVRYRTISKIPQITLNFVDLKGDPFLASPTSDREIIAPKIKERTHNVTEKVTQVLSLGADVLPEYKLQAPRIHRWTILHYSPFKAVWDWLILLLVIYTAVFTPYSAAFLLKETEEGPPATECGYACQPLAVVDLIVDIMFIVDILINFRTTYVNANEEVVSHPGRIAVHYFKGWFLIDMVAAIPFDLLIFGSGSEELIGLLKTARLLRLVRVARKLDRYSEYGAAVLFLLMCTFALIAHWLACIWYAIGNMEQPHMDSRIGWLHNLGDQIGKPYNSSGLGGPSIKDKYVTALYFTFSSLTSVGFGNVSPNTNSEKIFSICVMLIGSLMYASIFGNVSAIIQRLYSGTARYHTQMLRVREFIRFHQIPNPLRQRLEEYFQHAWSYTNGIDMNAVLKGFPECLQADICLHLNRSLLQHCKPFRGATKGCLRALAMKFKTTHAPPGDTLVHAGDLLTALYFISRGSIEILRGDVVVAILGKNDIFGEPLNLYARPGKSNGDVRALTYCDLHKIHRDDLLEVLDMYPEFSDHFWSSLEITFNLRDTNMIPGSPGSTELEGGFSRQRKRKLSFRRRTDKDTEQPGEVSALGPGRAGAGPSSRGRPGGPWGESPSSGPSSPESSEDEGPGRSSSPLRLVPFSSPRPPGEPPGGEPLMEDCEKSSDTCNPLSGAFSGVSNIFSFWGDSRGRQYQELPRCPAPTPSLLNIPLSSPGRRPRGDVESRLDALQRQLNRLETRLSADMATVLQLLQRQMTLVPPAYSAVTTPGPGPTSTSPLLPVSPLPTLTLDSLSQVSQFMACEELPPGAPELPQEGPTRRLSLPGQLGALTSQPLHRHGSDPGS
histamine H3 receptor, sequence (Q9Y5N1 whole entry, species assumed): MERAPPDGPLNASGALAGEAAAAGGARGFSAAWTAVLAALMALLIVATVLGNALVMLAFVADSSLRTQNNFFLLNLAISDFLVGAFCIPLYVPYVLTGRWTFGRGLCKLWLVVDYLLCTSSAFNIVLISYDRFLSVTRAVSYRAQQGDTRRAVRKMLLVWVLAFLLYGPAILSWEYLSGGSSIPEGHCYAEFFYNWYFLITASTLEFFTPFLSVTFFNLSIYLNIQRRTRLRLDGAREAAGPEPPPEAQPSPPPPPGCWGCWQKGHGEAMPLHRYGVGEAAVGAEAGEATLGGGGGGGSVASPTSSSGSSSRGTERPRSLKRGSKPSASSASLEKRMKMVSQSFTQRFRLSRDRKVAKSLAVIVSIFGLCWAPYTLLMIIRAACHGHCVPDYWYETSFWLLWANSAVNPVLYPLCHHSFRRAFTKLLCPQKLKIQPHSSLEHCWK

For the molecule `O=C(CN1CCN(C2CCC2)CC1)Nc1ccc(OC2CC(N3CCCCC3)C2)cc1` (centres unmarked) [BIOS-B-12, 2-(4-cyclobutylpiperazin-1-yl)-N-(4-(3-(piperidin-1-yl)cyclobutoxy)phenyl)acetamide], in data set [1], the inhibition at 0.005 µM stood at 99.1% and the inhibition at 0.05 µM was 98.8%. The inhibition at 10 µM in data set [2] is 2.06%. Besides, the “mechanical withdrawal thresholds vs model group” value in data set [3] (0.3 mg/kg single dose by gavage, 1 h to 2 h after administration, P<0.05, FIG. 1) is “significantly different”. For the same molecule, the “mechanical withdrawal thresholds vs model group” value in data set [3] (1 mg/kg single dose by gavage, 0.5 h to 6 h after administration, P<0.01, FIG. 1) was “significantly different”. The “mechanical withdrawal thresholds vs model group” value in data set [3] (3 mg/kg single dose by gavage, 0.5 h to 24 h after administration, P<0.01, FIG. 1) is listed as “significantly different”. Also, in data set [3] (setting [5]), the “level of analgesia compared with pregabalin” value is given as “superior to that of pregabalin” and the “period of analgesia time compared with pregabalin” value is recorded as “longer period of analgesia time”. Moreover, the “mechanical withdrawal thresholds in the CCI model rats, dose dependence” value in data set [3] (single dose at 3, 1 and 0.3 mg/kg, FIG. 1) is “dose-dependently increasing”. Besides, in data set [4], the “number of histamine-induced scratched in mice” value is recorded as “reduced”, the “antipruritic effect compared with positive control dexamethasone” value is “more effective than the positive control” and the “Inhibition Rate (%) of number of scratches” value (“Inhibition Rate (%)” below) was determined as 36.6%.
Regarding `C[C@@H]1CCCN1CCNC(=O)Nc1ccc(OC2CC(N3CCCCC3)C2)cc1` (stereo partly drawn) [BIOS-B-14, (R)-1-(2-(2-methylpyrrolidin-1-yl)ethyl)-3-(4-(3-(piperidin-1-yl)cyclobutoxy)phenyl)urea], in data set [1], the inhibition at 0.005 µM is 100% and the inhibition at 0.05 µM was 101%. Also, the inhibition at 10 µM in data set [2] came to 0.17%. Further, the “mechanical withdrawal thresholds vs model group” value in data set [3] (1 mg/kg single dose by gavage, 0.5 h to 5 h after administration, P<0.05, FIG. 2) is listed as “significantly increased”. Also, in data set [3] (BIOS-B-14 1 mg/kg vs pregabalin 30 mg/kg, FIG. 2 study), the “period of analgesia time compared with pregabalin” value is reported as “longer period of analgesia time than that of pregabalin”.
As for `O=C(NCCN1CCCCC1)Nc1ccc(OC2CC(N3CCCCC3)C2)cc1` (centres unmarked) [BIOS-B-15, 1-(4-(3-(piperidin-1-yl)cyclobutoxy)phenyl)-3-(2-(piperidin-1-yl)ethyl)urea], in data set [1], the inhibition at 0.005 µM was 99% and the inhibition at 0.05 µM turned out to be 100%. Further, the inhibition at 10 µM in data set [2] was -0.12%.
The matching figures for `CN1CCCN(CCNC(=O)Nc2ccc(OC3CC(N4CCCCC4)C3)cc2)CC1` (centres unmarked) [BIOS-B-17, 1-(2-(4-methyl-1,4-diazepan-1-yl)ethyl)-3-(4-(3-(piperidin-1-yl)cyclobutoxy)phenyl)urea]: 101%, 99.4% and 1.52%.
Turning to `O=C(NCCN1CCC(F)(F)CC1)Nc1ccc(OC2CC(N3CCCCC3)C2)cc1` (centres unmarked) [BIOS-B-18, 1-(2-(4,4-difluoropiperidin-1-yl)ethyl)-3-(4-(3-(piperidin-1-yl)cyclobutoxy)phenyl)urea], in data set [1], the inhibition at 0.005 µM was 99.7% and the inhibition at 0.05 µM amounted to 99.9%. Further, the inhibition at 10 µM in data set [2] was -0.65%. Besides, in data set [4], the “number of histamine-induced scratched in mice” value was “reduced”, the “antipruritic effect compared with positive control dexamethasone” value is “more effective than the positive control” and the “Inhibition Rate (%)” value was determined as 55.0%.
In the case of `O=C(NCCN1CCC(O)CC1)Nc1ccc(OC2CC(N3CCCCC3)C2)cc1` (centres unmarked) [BIOS-B-19, 1-(2-(4-hydroxypiperidin-1-yl)ethyl)-3-(4-(3-(piperidin-1-yl)cyclobutoxy)phenyl)urea], in data set [1], the inhibition at 0.005 µM was found to be 101% and the inhibition at 0.05 µM was found to be 101%. For the same molecule, the inhibition at 10 µM in data set [2] was -0.09%.
Take `O=C(NCCN1CCSCC1)Nc1ccc(OC2CC(N3CCCCC3)C2)cc1` (centres unmarked) [BIOS-B-20, 1-(4-(3-(piperidin-1-yl)cyclobutoxy)phenyl)-3-(2-thiomorpholinoethyl)urea]: in data set [1], the inhibition at 0.005 µM is 100% and the inhibition at 0.05 µM came out at 101%. Moreover, the inhibition at 10 µM in data set [2] was -0.66%.
Take `CN1CCN(CCNC(=O)Nc2ccc(OC3CC(N4CCCCC4)C3)cc2)CC1` (centres unmarked) [BIOS-B-22, 1-(2-(4-methylpiperazin-1-yl)ethyl)-3-(4-(3-(piperidin-1-yl)cyclobutoxy)phenyl)urea]: in data set [1], the inhibition at 0.005 µM came to 101% and the inhibition at 0.05 µM turned out to be 99.5%. In addition, in data set [2], the inhibition at 10 µM was -2.43%.
The matching figures for `O=C(NCCN1CCCC(O)C1)Nc1ccc(OC2CC(N3CCCCC3)C2)cc1` (centres unmarked) [BIOS-B-23, 1-(2-(3-hydroxypiperidin-1-yl)ethyl)-3-(4-(3-(piperidin-1-yl)cyclobutoxy)phenyl)urea]: 100%, 100% and 0.37%.
Turning to `C[C@@H]1C[C@H]2[C@@H]3CCC4=CC(=O)C=C[C@]4(C)[C@@]3(F)[C@@H](O)C[C@]2(C)[C@@]1(O)C(=O)CO` [Dex, dexamethasone, reference compound], the “Inhibition Rate (%)” value in data set [4] was found to be 29.3%.
On to `CC(C)C[C@H](CN)CC(=O)O` [Pregabalin, pregabalin, reference compound], for which the “mechanical withdrawal thresholds vs model group” value is reported as “significantly different” in data set [3] (30 mg/kg single dose by gavage, only from 0.5 h to 1 h after administration, FIG. 2 study) and “significantly different” in data set [3] (30 mg/kg single dose by gavage, only from 0.5 h to 2 h after administration, FIG. 1 study).
